Results taken from patent publication US10610509B2, “Combinations of prostaglandins and nitric oxide donors” (NICOX S.A., priority 2014, dated 2020).

Legend:
[1] = system: ocular normotensive New Zealand White (NZW) rabbits; assay: Intraocular pressure (IOP) lowering activity in ocular normotensive NZW rabbits; assay type: in vivo; settings: versus vehicle and versus basal IOP, mean±standard error, compound (12) 0.1%, travoprost 0.004% eye drops
Method: Intraocular Pressure (IOP) Lowering Activity in Ocular Normotensive New Zealand White (NZW) Rabbits
The Intraocular pressure (IOP) lowering activity of the combination of compound (12) (0.1%) and travoprost (0.004%) was assessed in ocular normotensive rabbits.
Adults male NZW rabbits weighting 1.8-2.0 Kg were used in the experiments.
IOP was measured using a pneumatonometer 30 CLASSIC™ before topical application (basal) and at different time points (30, 60, 120, 180, 240 and 300 min) thereafter. Travoprost (0.004%) or vehicle (5% cremophor-EL; 0.3% DMSO; 0.2 mg/ml BAC in PBS pH 6.0) were topically administered 5 minutes prior to compound (12) (0.1%) or vehicle (same as above) as eye drops into the conjunctiva pocket. Eyes were randomly assigned to different treatment groups. One drop of 0.4% oxybuprocaine hydrochloride (Novesine, Sandoz) was instilled in each eye immediately before each set of ocular pressure measurements.
Results are reported in the table in which the ocular hypotensive activity of the combination, of compound (12) and of travoprost are expressed as IOP change (at 30, 60, 120 and 300 minutes following topical administration) versus vehicle and versus IOP at basal (mean±standard error).

[2] = system: ocular hypertensive New Zealand White (NZW) rabbits; assay: Intraocular pressure (IOP) lowering activity in ocular hypertensive NZW rabbits (hypertonic saline injection); assay type: in vivo; settings: versus vehicle and versus basal IOP, mean±standard error, compound (12) 0.3%, travoprost 0.004% topical, hypertonic saline (5%) intravitreal
Method: Intraocular Pressure (IOP) Lowering Activity in Ocular Hypertensive New Zealand White (NZW) Rabbits
The Intraocular pressure (IOP) lowering activity of the combination of compound (12) (0.3%) and travoprost (0.004%) was assessed in ocular hypertensive rabbits.
Adult male NZW rabbits weighting 1.8-2.0 Kg were used in the experiments.
NZW rabbits were injected with 0.1 ml of hypertonic saline (5%) into the vitreous humor of both eyes. IOP was measured using a Tono-Pen AVIA Vet® at different time points (30, 60, 120 and 240 min) following hypertonic saline injection as well as before topical drug application (basal).
Travoprost (0.004%) or vehicle (5% cremophor-EL; 0.3% DMSO; 0.2 mg/ml BAC in PBS pH 6.0) were topically administered 15 min before hypertonic saline injection.
Compound (12) (0.3%) or vehicle (5% cremophor-EL; 0.3% DMSO; 0.2 mg/ml BAC in PBS pH 6.0) were topically administered immediately after hypertonic saline injection. Eyes were randomly assigned to different treatment groups.
One drop of 0.4% oxybuprocaine hydrochloride (Novesine, Sandoz) was instilled in each eye immediately before each set of ocular pressure measurements.
The ocular hypotensive effects (at […] following topical administration) of travoprost, compound (12) and the combination of compound (12) and travoprost are reported in table 2.
The results reported in table 2 are expressed as IOP change (at 30, 60, 120 and 300 minutes following topical administration) versus vehicle and versus IOP at basal (mean±standard error).

[3] = 30 minutes after topical administration
[4] = 60 minutes after topical administration
[5] = 120 minutes after topical administration
[6] = 180 minutes after topical administration
[7] = 300 minutes after topical administration

SMILES	IOP change [1, 3] [mmHg]	IOP change [1, 4] [mmHg]	IOP change [1, 5] [mmHg]	IOP change [1, 6] [mmHg]	IOP change [1, 7] [mmHg]	IOP change ([2]; 30 minutes) [mmHg]	IOP change ([2]; 60 minutes) [mmHg]	IOP change ([2]; 120 minutes) [mmHg]	IOP change ([2]; 240 minutes) [mmHg]
O=C(CCC[C@@H](CO[N+](=O)[O-])O[N+](=O)[O-])O[C@@H]1CO[C@H]2[C@@H]1OC[C@H]2O [Compound (12), (S)-((3R,3aR,6R,6aR)-6-hydroxyhexahydrofuro[3,2-b]furan-3-yl) 5,6-bis(nitrooxy)hexanoate]	−1.4 ± 0.6	−2.1 ± 0.4	−0.3 ± 0.3	0.1 ± 0.5	1.1 ± 0.8	−2.4 ± 0.6	−7.7 ± 0.5	−6.4 ± 0.5	−1.8 ± 0.6
CC(C)OC(=O)CCC/C=C\C[C@@H]1[C@@H](/C=C/[C@@H](O)COc2cccc(C(F)(F)F)c2)[C@H](O)C[C@@H]1O [Travoprost, 5-heptenoic acid, 7-[(1R,2R,3R,5S)-3,5-dihydroxy-2-[(1E,3R)-3-hydroxy-4-[3-(trifluoromethyl)phenoxy]-1-buten-1-yl]cyclopentyl]-, 1-methylethyl ester, (5Z)-]	−1.6 ± 1.6	−0.9 ± 1.0	−1.1 ± 1.2	−0.8 ± 0.4	−0.6 ± 0.1	−2.4 ± 0.5	−5.0 ± 0.8	−5.1 ± 0.7	−1.7 ± 0.4
